Results published in US10828299B2 (Gilead Sciences, Inc., priority 2013, dated 2020).

Test system: human hepatocytes
Assay: Human Hepatocyte Stability Assay
Format: in vitro ADME
Settings: comparison table with known compounds; head prints (units)
Protocol: The human […] stability of the compounds as predicted hepatocyte clearance in L/hr/kg was assessed. Compounds to be tested were diluted to 200 μM (4 μl of 10 mM DMSO stock into 196 μl ACN:H2O (50:50). Propranolol was used as a positive control, and buffer only without hepatocytes as 0% control. These were further diluted 4 μl with 891 μl KHB buffer (InVitroGRO catalog number Z99074) to provide 2× dosing solution. To each well of 24 well plate, 250 μl of the 2× dosing solution was added to each well with 250 μl of hepatocytes cells (1×10^6 viable cells/ml per well) or KHB for control samples to achieve a final compound concentration of 1 μM during incubation. The final solvent concentration was 0.01% DMSO and 0.25% ACN. The culture plate was placed on a rocker and incubated at 37° C., 5% CO2. Samples were collected at time 0, 1, 3, and 6 hours. The loss of parent compound was determined using LC-MS methods against a standard curve.

Question: With `Nc1cncc(-c2cn3ccnc3c(Nc3ccc(N4CCOCC4)cc3)n2)c1` [6-(5-aminopyridin-3-yl)-N-(4-morpholinophenyl)imidazo[1,2-a]pyrazin-8-amine, reference compound] as the compound, how does the “Hheps CL” value read?
Answer: 11.3 mL/min/kg

Question: Which “Hheps CL” value does the source give for `Nc1cncc(-c2cn3ccnc3c(Nc3ccc(N4CCN(CC(CO)CO)CC4)cc3)n2)n1` [Ex.-6, 2-((4-(4-((6-(6-aminopyrazin-2-yl)imidazo[1,2-a]pyrazin-8-yl)amino)phenyl)piperazin-1-yl)methyl)propane-1,3-diol] here?
Answer: 1.3 mL/min/kg

Question: Which “Hheps CL” value does the source give for `Cc1ncc(-c2cn3ccnc3c(Nc3ccc(N4CCN(C5COC5)CC4)c(OCCO)c3)n2)nc1N` [Ex.-7, 2-(5-((6-(6-amino-5-methylpyrazin-2-yl)imidazo[1,2-a]pyrazin-8-yl)amino)-2-(4-(oxetan-3-yl)piperazin-1-yl)phenoxy)ethanol] here?
Answer: 0.83 mL/min/kg

Question: Which “Hheps CL” value does the source give for `COc1ccc(Nc2nc(-c3ccc(N)nc3)cn3ccnc23)cc1OC` [6-(6-aminopyridin-3-yl)-N-(3,4-dimethoxyphenyl)imidazo[1,2-a]pyrazin-8-amine, reference compound] here?
Answer: 15 mL/min/kg

Question: For `Cc1ncc(-c2cn3ccnc3c(Nc3ccc(N4CCOCC4)cc3)n2)cc1N` [6-(5-amino-6-methylpyridin-3-yl)-N-(4-morpholinophenyl)imidazo[1,2-a]pyrazin-8-amine, reference compound], which “Hheps CL” value is on record?
Answer: 13.3 mL/min/kg

Question: How did the “Hheps CL” value turn out when `Nc1cncc(-c2cn3ccnc3c(Nc3ccc(N4CCO[C@@H](CO)C4)cc3)n2)n1` [Ex.-3, (R)-(4-(4-((6-(6-aminopyrazin-2-yl)imidazo[1,2-a]pyrazin-8-yl)amino)phenyl)morpholin-2-yl)methanol] was run?
Answer: 1.5 mL/min/kg

Question: With `Cc1c(-c2cncc(N)n2)nc(Nc2ccc(N3CCN(C4COC4)CC3)cc2)c2nccn12` [Ex.-4, 6-(6-aminopyrazin-2-yl)-5-methyl-N-(4-(4-(oxetan-3-yl)piperazin-1-yl)phenyl)imidazo[1,2-a]pyrazin-8-amine] as the compound, how does the “Hheps CL” value read?
Answer: 1.3 mL/min/kg

Question: `COc1ccc(Nc2nc(-c3cccc(N)c3)cn3ccnc23)cc1OC` [6-(3-aminophenyl)-N-(3,4-dimethoxyphenyl)imidazo[1,2-a]pyrazin-8-amine, reference compound] was tested. Which “Hheps CL” value did it give?
Answer: 4 mL/min/kg

Question: How did the “Hheps CL” value turn out when `Nc1cncc(-c2cn3ccnc3c(Nc3ccc(N4CCN(C5COC5)CC4)cc3)n2)n1` [Ex.-2, 6-(6-aminopyrazin-2-yl)-N-(4-(4-(oxetan-3-yl)piperazin-1-yl)phenyl)imidazo[1,2-a]pyrazin-8-amine] was run?
Answer: 0.917 mL/min/kg

Question: With `Cc1ncc(-c2cn3ccnc3c(Nc3ccc(N4CCN(C5COC5)CC4)cc3)n2)nc1N` [Ex.-1, 6-(6-amino-5-methylpyrazin-2-yl)-N-(4-(4-(oxetan-3-yl)piperazin-1-yl)phenyl)imidazo[1,2-a]pyrazin-8-amine] as the compound, how does the “Hheps CL” value read?
Answer: 2 mL/min/kg

Question: For `Nc1cncc(-c2cn3ccnc3c(Nc3ccc(N4CCN(C5COC5)CC4)c(OCCO)c3)n2)n1` [Ex.-5, 2-(5-((6-(6-aminopyrazin-2-yl)imidazo[1,2-a]pyrazin-8-yl)amino)-2-(4-(oxetan-3-yl)piperazin-1-yl)phenoxy)ethanol], which “Hheps CL” value is on record?
Answer: 1.2 mL/min/kg
